# Laboratory results as given in article PMC7278776, “Multidrug Resistance Modulation Activity of Silybin Derivatives and Their Anti-Inflammatory Potential” (Antioxidants, 2020).
# Legend:
# ABCB9 = ABCB9 mRNA expression (real-time PCR); assay type: cell-based, human; conditions: A2780/DOX, 10 µM, 48 h, without doxorubicin
# ABCF2 [1] = test: ABCF2 mRNA expression (real-time PCR); assay type: cell-based, human; conditions: A2780/DOX, 10 µM combined with doxorubicin at IC25, 48 h
# Procedure: (§1) The A2780/DOX cell line was seeded into 5 cm Petri dishes with DMEM medium at 1 × 10^5 cell/mL. After 24 h, the dishes were washed with PBS and new DMEM medium supplemented with doxorubicin (at concentration equal to IC25) and samples (10 µM) were added. After 48 h of treatment, the cells were washed with PBS and harvested using the standard trypsin-EDTA procedure. The harvested cells were centrifuged (3200× g; 10 min, 4 °C). The supernatant was discarded, and the pellets were washed with 1.5 mL of cooled PBS (5400× g; 10 min, 4 °C). The washing step was repeated with 1 mL of PBS and the cells were centrifuged again (10,000× g; 3 min, 4 °C). Afterwards, the pellets were resuspended in 1 mL of Trizol (Invitrogen, Carlsbad, CA, USA) and transferred into pre-cooled RNase-free microfuge tubes. The samples were stored at −80 °C.
# (§2) A Quant-iT RiboGreen RNA Assay Kit (Invitrogen) was used to determine the RNA concentration using the Infinite M200 plate reader (Tecan, Männedor, Switzerland). The cDNA was prepared from 0.5 µg of total RNA using a RevertAid First Strand Synthesis cDNA Kit (MBI Fermentas, Vilnius, Lithuania). The amplification of the ubiquitin C gene fragment was used to determine the quality of cDNA.
# (§3) The experiment was performed using the ViiA7 Real-Time polymerase chain reaction (PCR) System (Life Technologies, Camarillo, CA, USA) with a 384-well block. Before quantitative real-time PCR, the master mix was prepared by mixing 2 µL of 8 × diluted cDNA, 1.75 µL of RNase free water, 1 µL of 5 × HotFIREPol Probe quantitative PCR Mix Plus (Solis Biodyne, Tartu, Estonia) and 0.25 µL of specific 20 × TaqMan Gene Expression Assay (Life Technologies), giving 5 µL of final reaction volume. Cycling parameters were: initial hold at 50 °C for 2 min and denaturation at 95 °C for 10 min, followed by 45 cycles consisting of denaturation at 95 °C for 15 s and annealing/extension at 60 °C for 1 min. After each extension phase, the fluorescence values were acquired. Duplicate samples were used for measurement and samples with a standard deviation of duplicates > 1.0 cycle threshold (Ct) were re-analyzed. The real time PCR procedure was maintained according to MIQE (Minimum information for publication of quantitative real-time PCR experiments) guidelines. The software REST 2009 (Qiagen, Hilden, Germany) served to compare relative transcript levels of genes in the cell line.
# ABCE1 = ABCE1 mRNA expression (real-time PCR); assay type: cell-based, human; conditions: A2780/DOX, 10 µM, 48 h, without doxorubicin
# Procedure: as §1, §2, §3
# ABCG1 = ABCG1 mRNA expression (real-time PCR); assay type: cell-based, human; conditions: A2780/DOX
# Procedure: as §1, §2, §3
# ABCB7 = ABCB7 mRNA expression (real-time PCR); assay type: cell-based, human; conditions: A2780/DOX, 10 µM, 48 h, without doxorubicin
# Procedure: as §1, with “After 24 h, the dishes were washed with PBS and new DMEM medium supplemented with doxorubicin (at concentration equal to IC25) and samples (10 µM) were added.” left out
# (§4) A Quant-iT RiboGreen RNA Assay Kit (Invitrogen) was used to determine the RNA concentration using the Infinite M200 plate reader (Tecan, Männedor, Switzerland). […]
# (§5) The experiment was performed using the ViiA7 Real-Time polymerase chain reaction (PCR) System (Life Technologies, Camarillo, CA, USA) with a 384-well block. Before quantitative real-time PCR, the master mix was prepared by mixing 2 µL of 8 × diluted cDNA, 1.75 µL of RNase free water, 1 µL of 5 × HotFIREPol Probe quantitative PCR Mix Plus (Solis Biodyne, Tartu, Estonia) and 0.25 µL of specific 20 × TaqMan Gene Expression Assay (Life Technologies), giving 5 µL of final reaction volume. […] After each extension phase, the fluorescence values were acquired. […]
# ABCC5 = ABCC5 mRNA expression (real-time PCR); assay type: cell-based, human; conditions: A2780/DOX, 10 µM, 48 h, without doxorubicin
# [2] = set-up: method as in PMID 15465345, PMID 19138735; conditions: cited from earlier work
# ABCF1 = ABCF1 mRNA expression (real-time PCR); assay type: cell-based, human; conditions: A2780/DOX
# Procedure: as §1, §2, §3
# [3] = Viability of A2780/DOX cells (resazurin); conditions: human
# Procedure: To determine the NO production, the medium was mixed with Griess reagent (0.04 g/mL, prepared in deionized water) in a 1:1 ratio. After 15 min, absorbance was recorded at 540 nm. To determine cell viability, the resazurin solution (0.03 mg/mL in PBS) was added to the cells. After 2 h of incubation, fluorescence was recorded (560/590 nm, ex./em.).
# A multidrug resistant ovarian sub-line resistant to doxorubicin (A2780/DOX, Sigma-Aldrich) was cultivated in DMEM medium with 10% FBS and 1 × antibiotic antimycotic solution. Every other passage, doxorubicin at the final concentration of 0.1 µM was added to the culture medium to maintain the resistance of the cell line. To perform experiments, the cells were seeded at 1 × 10^5 cell/mL into the wells of a 96-well plate and incubated for 24 h. Afterwards, the cells were washed with PBS and fresh DMEM medium with tested compounds at 10, 20 and 30 µM were added to each well, except for the control wells. Subsequently, the cells were exposed to increasing concentrations of doxorubicin (0.6–20 µM) for 72 h. After incubation, the resazurin assay was performed as described above. The IC50 of doxorubicin was calculated for both the control and the samples and the fold change was counted up. […] The fold change lower than 1 means an antagonistic effect. (1) FOLD CHANGE=IC50 value of DOX cells treated with chemotherapeutic /IC50 value of DOX cells treated with chemotherapeutic and compound
# [4] = set-up: method as in PMID 15465345, PMID 19138735; conditions: cited from earlier work; remark: listed apart in the source
# ABCA3 = ABCA3 mRNA expression (real-time PCR); assay type: cell-based, human; conditions: A2780/DOX
# Procedure: as §1, §2, §3
# ABCF2 [5] = test: ABCF2 mRNA expression (real-time PCR); assay type: cell-based, human; conditions: A2780/DOX, 10 µM, 48 h, without doxorubicin
# ABCB2 = ABCB2 mRNA expression (real-time PCR); assay type: cell-based, human; conditions: A2780/DOX, 10 µM, 48 h, without doxorubicin
# ABCD4 = ABCD4 mRNA expression (real-time PCR); assay type: cell-based, human; conditions: A2780/DOX, 10 µM, 48 h, without doxorubicin
# Procedure: as §1, §2
# as §5, with “acquired. Duplicate samples were used for measurement and samples with a standard deviation of duplicates > 1.0 cycle threshold (Ct) were re-analyzed. The real time PCR procedure was maintained according to MIQE (Minimum information for publication of quantitative real-time PCR experiments) guidelines.” for “acquired.”
# ABC superfamily genes = test: Expression profile of ABC superfamily genes (real-time PCR); assay type: cell-based, human; conditions: 10 µM, 48 h, without doxorubicin
# Procedure: as §1, with “After 24 h, the dishes were washed with PBS and new DMEM medium supplemented with doxorubicin (at concentration equal to IC25) and samples (10 µM) were added.” left out
# as §4, §5
# ABCB8 = ABCB8 mRNA expression (real-time PCR); assay type: cell-based, human; conditions: A2780/DOX, 10 µM, 48 h, without doxorubicin
# Procedure: as §1, with “After 24 h, the dishes were washed with PBS and new DMEM medium supplemented with doxorubicin (at concentration equal to IC25) and samples (10 µM) were added.” left out
# as §2
# as §5, with “acquired. Duplicate samples were used for measurement and samples with a standard deviation of duplicates > 1.0 cycle threshold (Ct) were re-analyzed. The real time PCR procedure was maintained according to MIQE (Minimum information for publication of quantitative real-time PCR experiments) guidelines.” for “acquired.”
# ABCA2 = ABCA2 mRNA expression (real-time PCR); assay type: cell-based, human; conditions: 10 µM, 48 h, without doxorubicin; for ABCA2 Expression Difference / ABCA2 Treated vs. Untreated: A2780/DOX
# ABCB3 = ABCB3 mRNA expression (real-time PCR); assay type: cell-based, human; conditions: A2780/DOX, 10 µM, 48 h, without doxorubicin
# Procedure: as §1, with “After 24 h, the dishes were washed with PBS and new DMEM medium supplemented with doxorubicin (at concentration equal to IC25) and samples (10 µM) were added.” left out
# as §4, §5
# [6] = 10 µM combined with doxorubicin at IC25, 48 h
# [7] = 10 µM, 48 h, without doxorubicin
SMILES,ABCB9 Expression Difference (ABCB9),ABCF2 Expression Difference (ABCF2 [1]),ABCE1 Expression Difference (ABCE1),ABCG1 Expression Difference (ABCG1; [6]),ABCB7 Expression Difference (ABCB7),ABCC5 Expression Difference (ABCC5),ABCF1 Expression Difference (ABCF1; [6]),ABCF1 Expression Difference (ABCF1; [7]),ABCF1 Treated vs. Untreated (ABCF1; [7]),viability at 20 µM [3],ABCA3 Expression Difference (ABCA3; [6]),ABCF2 Expression Difference (ABCF2 [5]),ABCB2 Expression Difference (ABCB2),ABCD4 Expression Difference (ABCD4),ABCB8 Expression Difference (ABCB8),ABCG1 Expression Difference (ABCG1; [7]),ABCA2 Expression Difference (ABCA2),ABCA2 Treated vs. Untreated (ABCA2),downregulation of ABCA2 expression (ABCA2),also measured
"COc1cc(C2Oc3cc(-c4oc5cc(O)cc(O)c5c(=O)c4O)ccc3OC2CO)ccc1O (stereo not shown) [Dehydrosilybin AB, 2,3-dehydrosilybin]",1.669,1.343,1.408,1.826,1.463,1.519,0.923,0.322,DOWN,< 80%,0.943,1.418,2.341,–,–,–,–,–,–,inhibition of lipid peroxidation compared to silybin [2]: 10 fold; radical scavenging compared to silybin [4]: 25 fold
"COc1cc([C@@H]2Oc3cc([C@H]4Oc5cc(O)cc(O)c5C(=O)[C@@H]4O)ccc3O[C@H]2CO)ccc1O [Silybin B, silybin B]",0.392,–,0.391,–,–,0.365,–,0.260,DOWN,–,0.794,0.307,–,0.370,0.413,0.303,0.520,DOWN,–,ABCB9 Treated vs. Untreated (ABCB9): DOWN; ABCD4 Treated vs. Untreated (ABCD4): DOWN; number of ABC genes with altered expression (ABC superfamily genes; out of 42 tested): 24; ABCE1 Treated vs. Untreated (ABCE1): DOWN; ABCB8 Treated vs. Untreated (ABCB8): DOWN; ABCG1 Treated vs. Untreated (ABCG1; [7]): DOWN; ABCC5 Treated vs. Untreated (ABCC5): DOWN; ABCA3 Treated vs. Untreated (ABCA3; [6]): DOWN; ABCA3 Expression Difference (ABCA3; [7]): 0.228; ABCA3 Treated vs. Untreated (ABCA3; [7]): DOWN; ABCF2 Treated vs. Untreated (ABCF2 [5]): DOWN; ABCB3 Expression Difference (ABCB3): 0.365; ABCB3 Treated vs. Untreated (ABCB3): DOWN
"COc1cc([C@@H]2Oc3cc(-c4oc5cc(O)cc(O)c5c(=O)c4O)ccc3O[C@H]2CO)ccc1O [Dehydrosilybin B, 2,3-dehydrosilybin B]",–,1.226,–,2.931,–,–,0.784,–,–,< 80%,1.060,1.334,1.625,–,–,–,0.891,DOWN,11%,–
"COc1cc([C@H]2Oc3cc(-c4oc5cc(O)cc(O)c5c(=O)c4O)ccc3O[C@@H]2CO)ccc1O [Dehydrosilybin A, 2,3-dehydrosilybin A]",1.317,1.044,–,2.714,–,–,0.920,–,–,–,1.042,1.198,1.905,–,–,–,0.778,DOWN,22%,viability at 50 µM [3]: < 80%
"COc1cc([C@H]2Oc3cc([C@H]4Oc5cc(O)cc(O)c5C(=O)[C@@H]4O)ccc3O[C@@H]2CO)ccc1O [Silybin A, silybin A]",–,1.242,–,–,–,–,–,–,–,–,–,–,1.141,–,–,–,1.078,–,–,–
"COc1cc(C2Oc3cc([C@H]4Oc5cc(O)cc(O)c5C(=O)[C@@H]4O)ccc3OC2CO)ccc1O (stereo partly shown) [Silybin AB, silybin]",2.091,1.463,1.558,1.559,1.803,1.819,0.137,–,–,–,1.142,1.326,–,1.882,1.503,2.416,2.583,–,–,number of ABC genes with increased expression (ABC superfamily genes): 20; ABCF1 Treated vs. Untreated (ABCF1; [6]): DOWN
